Results taken from patent US20220298579A1, “COMPOSITIONS AND METHODS FOR PREDICTING SUSCEPTIBILITY OF CANCERS TO SYNTHETIC-LETHAL THERAPIES” (University of Florida Research Foundation, Inc., priority 2019, published 2022).

Columns and labels:
[1] = tested on: EBV-positive HH514-16 Burkitt lymphoma (BL) cells; experiment: DR-GFP reporter assay of HR-mediated DSB repair in BL cells; assay type: cell-based, human; conditions: increasing concentrations of AG490 (25 μM, 50 μM) added 18 h after DR-GFP + ISce1 transfection, harvested after another 30 h; HH514-16 BL cells
Method: (§1) FIGS. 2A to 2O show STAT3 restricts HR repair through Chk1 in oncovirus-transformed cells. FIGS. 2A to 2K show LCL derived from a healthy subject (FIGS. 2A-2E, 2K) and EBV-positive HH514-16 Burkitt lymphoma (BL) cells (FIGS. 2F-2J, 2K) were transfected with DR-GFP plasmid (FIGS. 2A-2D, 2F-2I) and empty vector pCAGGS (FIGS. 2A, 2F) or ISce1 plasmid (FIGS. 2B-2D, 2G-2I), treated with 25 μM (FIGS. 2C, 2H) or 50 μM (FIGS. 2D, 2I) AG490 (a selective STAT3 inhibitor) after 18 h, and harvested after another 30 h for analysis of GFP-positive cells by flow cytometry (FIGS. 2A-2D, 2F-2I) and immunoblotting for phospho(p)STAT3 and β-actin (FIG. 2K). LCL (FIG. 2E) and BL cells (FIG. 2J) were transfected in parallel with pEGFP to monitor transfection efficiency. […]
(§2) For assessment of cell-cycle distribution, cells were fixed, permeabilized, and stained with anti-EBNA2 antibody and 50 μg/ml propidium iodide supplemented with 1 μg/ml RNase A, as previously described (Hill, E. R. et al. J Virol 87:11438-11446 (2013)). […] Data were acquired using a FACS Calibur and analyzed using FlowJo software. […]

[2] = tested on: STAT3 phosphorylation; conditions: Janus kinase inhibitor; literature (Koganti 2014; Meydan 1996); cited from earlier work
[3] = tested on: LCL derived from a healthy subject; experiment: DR-GFP reporter assay of HR-mediated DSB repair in LCL; assay type: cell-based, human; conditions: increasing concentrations of AG490 (25 μM, 50 μM) added 18 h after DR-GFP + ISce1 transfection, harvested after another 30 h
Method: as §1, §2

[4] = tested on: EBV-infected B-cell lines; conditions: 50 μM AG490; previously demonstrated (Koganti et al. 2014); cited from earlier work
[5] = tested on: LCL derived from healthy subjects (EBV-transformed cells); experiment: Growth of LCL in the presence of Olaparib (live cell enumeration); assay type: cell-based, human; conditions: Olaparib used alone, added at time 0 and every 3-4 days thereafter; all LCL (3 healthy subjects)
Excerpt: (§3) FIGS. 3A-3F show LCL derived from 3 healthy subjects (FIGS. 3A-3C) and 3 EBV^+ BL cell lines (HH514-16, Akata, and Raji; FIGS. 3D-3F) grown in the presence of Olaparib (added at time 0 and every 3-4 days thereafter) and enumerated for live cells on indicated days. FIGS. 3G-3N show LCL (FIGS. 3G-3J) and HH514-16 BL cells (FIGS. 3K-3N) transfected with DR-GFP plasmid (FIGS. 3G, 3H, 3K, 3L) and empty vector pCAGGS (FIGS. 3G, 3K) or ISce1 plasmid (FIGS. 3H, 3L) versus EJ2 plasmid (FIGS. 3I, 3J, 3M, 3N) and pCAGGS (FIGS. 3I, 3M) or ISce1 plasmid (FIGS. 3J, 3N) and harvested after 48 h for analysis of GFP-positive cells by flow cytometry. Numbers in plots indicate percent GFP-positive cells. Experiments were performed 3 times.
(§4) Newly-infected B cells and previously established EBV-LCL were grown in culture using conditions described (Koganti, S., et al. J Virol 88:516-524 (2014)). For experiments using AG490 and Olaparib, chemicals were added to cultures at time 0. For experiments using Olaparib, the drug was supplemented at the initial concentration every fourth day. For experiments using Bleomycin, the drug was added for an hour, following which cells were washed and placed back in culture.

[6] = tested on: EBV+ BL cell lines (HH514-16, Akata, and Raji); experiment: Growth of EBV+ BL cell lines in the presence of Olaparib (live cell enumeration); assay type: cell-based, human; conditions: Olaparib used alone, effect more pronounced than on LCL
Excerpt: as §3, §4

SMILES | percentages of GFP+ cells (HR repair competent) [1] | inhibition of STAT3 phosphorylation [2] | percentages of GFP+ cells (HR repair competent) [3] | toxicity to EBV-infected B-cell lines [4] | reduction in growth [5] [%] | sensitivity to PARP inhibition (growth) [6]
N#C/C(=C/c1ccc(O)c(O)c1)C(=O)NCc1ccccc1 [AG490] | increased | selectively inhibit STAT3 phosphorylation | increased | minimally toxic |  | 
O=C(c1cc(Cc2n[nH]c(=O)c3ccccc23)ccc1F)N1CCN(C(=O)C2CC2)CC1 [Olaparib] |  |  |  |  | > 50 | exquisite sensitivity
